In one test the test system is TNFα. The experiment in a line: TNFα protein secretion by activated RBL cells (ELISA). Format: cell-based, rodent. As to conditions: secreted TNFα (pre-stored plus de novo) 4 hours after Ca2+ re-exposure. The method, then:
(§1) [Ca^2+]ER in RBL2H3 cells were depleted by Tg in the same manner in the presence of the CRAC channel blockers as for [Ca^2+]i measurement but without loading the cells with Fluo-4NW. Then 200 μl of DMEM-3% FBS (containing 3 mM Ca^2+) was supplemented back in the presence of the corresponding concentration of CRAC channel blockers. Thirty minutes after Ca^2+-add back culture supernatant was collected for degranulation measurement. Degranulation was measured as secreted β-hexosaminidase according to the protocol of the assay kit (Sigma-Aldrich, MO, USA). Nuclear fraction was prepared from the cells for NFAT by using a subcellular protein fractionation kit (NE-PER™ Nuclear and Cytoplasmic Extraction Reagents, Pierce Biotechnology, Thermo Fisher Scientific, MA, USA). Nuclear NFAT-c1 was measured with an ELISA kit (Active Motif, CA, USA). At this time point TNFα was measured as pre-stored release with ELISA kits (R&D Systems, MN, USA). In a part after Ca^2+ add back incubation was prolonged for 4 h to measure de novo production of the cytokine TNFα.
(§2) IC50 and EC50 were calculated by nonlinear regression using Prims Graphpad software. Statistical analysis was performed by one-way ANOVA and post-hoc test (Tukey's test).
Mast cells can secrete pre-stored TNFα immediately upon activation, as well as de novo synthesized TNFα that takes a few hours to produce. RBL cells were activated similarly as described above, in the presence of various concentrations of a CRAC channel blocker. 4 Hours after RBL cells were re-exposed to Ca^2+, secreted TNFα (which accounted for the combined protein from pre-stored and de novo synthesized TNFα) in the supernatants were measured by ELISA.

The subject of test [1] is wounds of diabetic (STZ) C57B16 mice. Nature of the test: Wound healing in diabetic mice. Format: in vivo. As to conditions: DM mice. The text has this: (§3) C57B16 mice were made diabetic (DM) using Streptozotocin (STZ) and rabbits were made DM using alloxan. A 10-day wound-healing period was chosen since at least 80% wounds in non-DM mice and rabbits heal by that time-point. A dressing based on an alginate bandage for topical sustained release of Compound 1 was generated following the methods described in WO 2014/169250, and was then applied the shaved dorsum of DM mice either before (pre-wound) or after wounds (post-wound) were introduced. A comparison was made with the FDA-approved MC stabilizer, disodium cromoglycate (DSCG), 50 mg/kg DSCG (Intraperitoneal (ip) daily, 10 consecutive days prior to wounding) in non-DM and DM mice followed by wound procedure. Wound healing was monitored for 10 days.

The subject of test [2] is macrophages in skin of DM mice. The experiment in a line: M1/M2 macrophages in intact skin of diabetic mice. Format: in vivo.
Description: as §3

In the next test the target is CRAC channel (Rattus norvegicus, UniProt Q5M848). The experiment in a line: Inhibition of thapsigargin-induced calcium influx (intracellular Ca2+, Fluo-4NW) in RBL-2H3 cells. Format: cell-based, rodent. The following applies: 1 μM thapsigargin, 60 min compound incubation. The method, then:
RBL-2H3 cells (ATCC) were seeded in 96-well plate at 4×10^4 cells per well in DMEM-supplemented with 2% FBS and allowed to adhere overnight. Culture medium was then replaced with 50 μl of Ca^2+-free Tyrode solution to load Ca^2+-probe Fluo-4NW (Molecular Probe, Thermo Fisher, MA, USA) at 1:1 to the cells. New compound at indicated concentration was supplied during the probe loading from the beginning. Cells were incubated in the presence or absence of new compound for 60 minutes in the Ca^2+-free medium at 37° C. During the last 5 minutes of incubation, cells were treated with 1 μM thapsigargin (Sigma Aldrich) to deplete [Ca^2+]ER. 20 mM CaCl2 in saline solution was supplemented back to the [Ca^2+]ER-depleted cells to be 2 mM as final. Cell medium was removed 1 minute after Ca^2+ reloading, and changes in Fluo-4NW fluorescence (RFU) were recorded with the multi-mode plate reader (FilterMax F5, Molecular Devices/Thermo Fisher Scientific, MA, USA) at an excitation wavelength of 485 nm and an emission wavelength of 535 nm.
as §2
Inhibitory activity of calcium influx by the described compounds was determined using the RBL-2H3 rodent MC cell line as the primary in vitro assay. […]

A further test has as its system NFAT-c1. The experiment in a line: Nuclear translocation of NFAT in activated RBL cells (nuclear NFAT-c1 ELISA). Format: cell-based, rodent. The method, then:
as §1
The inhibition of nuclear translocation of the nuclear factor of activated T-cells (NFAT) by compound 12 in activated MCs was determined. […] Nuclear fraction was prepared from the cells by subcellular protein fractionation, and the nuclear NFAT-c1 content was measured by ELISA. […]
On the technique in general: An ELISA detects its analyte on a solid surface through an enzyme-linked reagent.

For another test, the system named is RBL-2H3 cells. The experiment in a line: Mast cell degranulation: β-hexosaminidase release from thapsigargin-activated RBL-2H3 cells. Format: cell-based, rodent. As to conditions: 1 μM thapsigargin. The method, then: as §1
Compound 12 was used to determine the inhibition of MC degranulation by measuring the release of pre-stored β-hexosaminidase 03-hex) upon MC activation. […] 30 Minutes after assay media were replenished with extracellular Ca^2+, supernatants and cell lysates were analyzed for β-hex concentrations by ELISA.

Entries after “also recorded” stand apart in the source; their conditions may differ.

Chain of CRAC channel (Q5M848 whole entry): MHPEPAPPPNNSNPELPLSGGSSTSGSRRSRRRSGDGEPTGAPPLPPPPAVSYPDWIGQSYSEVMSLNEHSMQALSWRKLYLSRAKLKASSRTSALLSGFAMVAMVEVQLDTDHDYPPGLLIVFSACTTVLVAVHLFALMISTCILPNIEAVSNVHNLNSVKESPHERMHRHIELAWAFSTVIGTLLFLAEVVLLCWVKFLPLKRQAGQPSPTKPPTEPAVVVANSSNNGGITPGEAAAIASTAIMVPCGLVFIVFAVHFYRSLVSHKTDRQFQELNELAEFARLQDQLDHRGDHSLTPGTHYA
Chain of CRAC channel (P84903 23-685, further chain): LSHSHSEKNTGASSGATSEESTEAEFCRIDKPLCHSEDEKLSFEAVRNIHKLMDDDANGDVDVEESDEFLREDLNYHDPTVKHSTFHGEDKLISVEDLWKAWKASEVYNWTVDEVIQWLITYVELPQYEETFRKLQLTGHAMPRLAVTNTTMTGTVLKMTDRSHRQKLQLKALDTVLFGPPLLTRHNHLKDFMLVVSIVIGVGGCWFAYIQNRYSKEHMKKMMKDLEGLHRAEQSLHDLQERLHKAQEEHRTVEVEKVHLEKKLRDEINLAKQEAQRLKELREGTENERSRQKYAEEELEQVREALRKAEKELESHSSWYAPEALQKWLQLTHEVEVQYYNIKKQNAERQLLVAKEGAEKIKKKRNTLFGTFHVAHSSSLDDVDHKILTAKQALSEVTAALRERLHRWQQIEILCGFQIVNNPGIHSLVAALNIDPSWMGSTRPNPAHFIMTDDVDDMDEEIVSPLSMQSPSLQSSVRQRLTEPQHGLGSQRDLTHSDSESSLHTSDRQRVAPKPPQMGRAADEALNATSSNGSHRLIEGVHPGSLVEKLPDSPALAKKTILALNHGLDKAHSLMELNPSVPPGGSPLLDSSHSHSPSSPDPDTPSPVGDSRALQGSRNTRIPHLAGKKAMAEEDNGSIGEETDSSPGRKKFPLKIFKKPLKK

On to `O=C(Nc1c(F)cncc1F)c1nn(Cc2ccc(Cl)cc2Cl)c2ccccc12` [Compound 15, 1-[(2,4-dichlorophenyl)methyl]-N-(3,5-difluoro-4-pyridyl)indazole-3-carboxamide], for which the IC50 (as a rule, the midpoint of a concentration-inhibition curve) in the test with TNFα was determined as 140 nM. Still for that read-out and setting: the same measure for `O=C(Nc1c(F)cccc1Cl)c1nn(Cc2ccc(Cl)cc2Cl)c2ccccc12` [Compound 8, N-(2-chloro-6-fluoro-phenyl)-1-[(2,4-dichlorophenyl)methyl]indazole-3-carboxamide]: 740 nM. `O=C(Nc1c(F)cccc1F)c1cn(Cc2ccc(Cl)cc2Cl)c2ccccc12` [Compound 1, 1-[(2,4-dichlorophenyl)methyl]-N-(2,6-difluorophenyl)indole-3-carboxamide]: in test [1] (topical alginate dressing, 10 days pre-wounding or 10 days post-wounding, monitored 10 days), the wound healing entry is “improved wound healing similar to systemic DSCG pre-treatment”. Besides, in test [2] (treatment for 10 days without any wound), the “number of M2 macrophages in skin” value was “increased the number of M2 macrophages”. `O=C(Nc1nn(Cc2ccc(Cl)cc2Cl)c2ccccc12)c1ccccc1F` [Compound 3, N-[1-[(2,4-dichlorophenyl)methyl]indazol-3-yl]-2-fluoro-benzamide]: the IC50 at CRAC channel worked out at 29 µM. `O=C(Nc1ccc(F)cc1F)c1nn(Cc2ccc(Cl)cc2Cl)c2ccccc12` [Compound 14, 1-[(2,4-dichlorophenyl)methyl]-N-(2,4-difluorophenyl)indazole-3-carboxamide]: in the test with TNFα, the IC50 was 640 nM. For the molecule `O=C(Nc1ccncc1F)c1cn(Cc2ccc(Cl)cc2Cl)c2ccccc12` [Compound 11, 1[(2,4-dichlorophenyl)methyl]-N-(3-fluoro-4-pyridyl)indole-3-carboxamide], the IC50 in the test on TNFα stood at 580 nM. Same read-out and setting: under `O=C(Nc1c(F)cccc1F)c1nn(Cc2ccc(Cl)cc2Cl)c2ccccc12` [Compound 7, 1-[(2,4-dichlorophenyl)methyl]-N-(2,6-difluorophenyl)indazole-3-carboxamide] stands 470 nM.

`O=C(Nc1nn(Cc2ccc(Cl)cc2Cl)c2ccccc12)c1ccncc1F` [Compound 12, N-[1-[(2,4-dichlorophenyl)methyl]indazol-3-yl]-3-fluoro-pyridine-4-carboxamide]: the “nuclear fraction of NFAT-c1 in activated RBL cells” value in the test on NFAT-c1 (1 μM thapsigargin, 30 min after Ca2+ add back, various concentrations, 5-fold increase without blocker) is “significantly and dose-dependently reduced the nuclear fraction of NFAT-c1; also recorded: dose-dependent inhibition”. Also, the “levels of nuclear NFAT at 10 μM and higher concentrations” value with NFAT-c1 (10 μM and higher, activated RBL cells) is listed as “restore the levels of nuclear NFAT to that of resting MCs”. Further, in the test with RBL-2H3 cells (40% of β-hex released without inhibitor), the “inhibition of β-hex release at the highest concentration tested” value is listed as “nearly complete inhibition of β-hex release”. Also, the “inhibition of β-hex release” value in the test on RBL-2H3 cells (30 min after Ca2+ add back, various concentrations) was “significantly and dose-dependently inhibited the release of β-hex; also recorded: dose-dependent inhibition”. Moreover, the IC50 in the test on TNFα amounted to 280 nM.

On to `O=C([O-])c1cc(=O)c2c(OCC(O)COc3cccc4oc(C(=O)[O-])cc(=O)c34)cccc2o1.[Na+].[Na+]` [DSCG, disodium cromoglycate, reference compound], for which, in test [1] (50 mg/kg ip daily, 10 consecutive days prior to wounding, p<0.05), the wound healing entry is given as “improved diabetic mouse wound healing”. Besides, in test [2] (DSCG treatment), the “M1/M2 ratio in intact skin” value is “reduced M1/M2 ratio in intact skin”.

For the origin of these results see patent publication US11084789B2, “Mast-cell modulators and uses thereof” (Beth Israel Deaconess Medical Center, Inc., priority 2016, dated 2021).
